Columns and labels:
Endothelial lipase (EL) = target: T1, Endothelial lipase (EL) (Homo sapiens, UniProt Q9Y5X9); test: Endothelial lipase (EL) enzymatic assay, fluorescent substrate A10070 in DMPG vesicles; format: biochemical; conditions: EL from conditioned media of HT-1080 cells; compound preincubated 30 min at 37° C; read-out: EL IC50
T1 construct: HT-1080 cells that were transformed using RAGE technology (Athersys) to overexpress endogenous EL; endogenous in cells; conditioned medium used
T1 sequence (Q9Y5X9 21-500): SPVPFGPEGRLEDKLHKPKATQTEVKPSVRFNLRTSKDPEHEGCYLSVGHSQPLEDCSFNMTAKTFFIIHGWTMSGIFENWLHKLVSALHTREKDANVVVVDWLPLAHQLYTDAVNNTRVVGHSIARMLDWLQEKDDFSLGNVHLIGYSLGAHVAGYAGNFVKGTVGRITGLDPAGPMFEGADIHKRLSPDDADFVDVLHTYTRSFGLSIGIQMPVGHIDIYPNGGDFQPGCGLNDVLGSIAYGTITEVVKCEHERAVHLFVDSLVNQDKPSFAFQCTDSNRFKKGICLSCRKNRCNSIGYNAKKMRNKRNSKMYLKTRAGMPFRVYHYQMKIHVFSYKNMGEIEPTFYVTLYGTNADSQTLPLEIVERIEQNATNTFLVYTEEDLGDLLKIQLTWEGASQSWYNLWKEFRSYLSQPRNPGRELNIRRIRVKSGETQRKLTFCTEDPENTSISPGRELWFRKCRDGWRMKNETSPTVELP
Method in brief: (§1)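 Substrate A10070 sits in sonicated DMPG vesicles at 0.11 mole fraction. Lipase and compound preincubated 30 min, 37° C, in HEPES pH 8.0 buffer with CaCl2.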

hepatic lipase (HL) = target: T2, hepatic lipase (HL) (Homo sapiens, UniProt P11150); test: Hepatic lipase (HL) enzymatic assay, fluorescent substrate A10070 in DMPG vesicles; format: biochemical; conditions: HL partially purified from conditioned media of COS cells; compound preincubated 30 min at 37° C; read-out: HL IC50
T2 construct: made in house; host or cells: COS cells (conditioned medium, partially purified)
T2 sequence (P11150 23-499): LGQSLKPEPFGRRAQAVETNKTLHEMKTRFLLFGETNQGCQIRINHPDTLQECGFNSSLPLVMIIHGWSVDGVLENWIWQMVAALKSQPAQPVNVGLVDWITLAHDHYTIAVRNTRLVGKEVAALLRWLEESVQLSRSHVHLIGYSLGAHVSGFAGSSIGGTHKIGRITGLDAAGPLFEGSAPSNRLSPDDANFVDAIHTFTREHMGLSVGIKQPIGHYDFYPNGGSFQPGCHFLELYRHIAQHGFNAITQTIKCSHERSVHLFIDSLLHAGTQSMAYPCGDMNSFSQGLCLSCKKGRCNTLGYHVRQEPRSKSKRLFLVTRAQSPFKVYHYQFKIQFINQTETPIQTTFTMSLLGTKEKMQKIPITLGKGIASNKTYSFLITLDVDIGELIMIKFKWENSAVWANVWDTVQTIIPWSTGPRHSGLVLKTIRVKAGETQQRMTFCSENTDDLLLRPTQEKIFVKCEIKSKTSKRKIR
Method in brief: as §1

Row | Compound | IC50 (Endothelial lipase (EL)) | IC50 (hepatic lipase (HL))
1 | Cn1ccc(-c2ccc3sc(C(c4nnc(CNS(N)(=O)=O)o4)S(C)(=O)=O)nc3c2)cc1=O (stereo not drawn) [Example 245, N-[(5-{methanesulfonyl[5-(1-methyl-2-oxo-1,2-dihydropyridin-4-yl)-1,3-benzothiazol-2-yl]methyl}-1,3,4-oxadiazol-2-yl)methyl]aminosulfonamide] | 8 nM | 72 nM
2 | CS(=O)(=O)C(c1nnc(CNS(N)(=O)=O)o1)c1nc2cc(-c3ncccn3)ccc2s1 (stereo not drawn) [Example 246, N-[(5-{methanesulfonyl[5-(pyrimidin-2-yl)-1,3-benzothiazol-2-yl]methyl}-1,3,4-oxadiazol-2-yl)methyl]aminosulfonamide] | 9 nM | 6 nM
3 | Cc1noc(C)c1-c1ccc2sc(C(c3nnc(CNS(N)(=O)=O)o3)S(C)(=O)=O)nc2c1 (stereo not drawn) [Example 248, N-[(5-{[5-(dimethyl-1,2-oxazol-4-yl)-1,3-benzothiazol-2-yl] (methanesulfonyl)methyl}-1,3,4-oxadiazol-2-yl)methyl] aminosulfonamide] | 5 nM | 26 nM
4 | COCCS(=O)(=O)C(c1nnc(CC(=O)NC2CC2)o1)c1nc2ccc(-c3ccc(F)nc3)cc2s1 (stereo not drawn) [Example 250, N-cyclopropyl-2-(5-{[6-(6-fluoropyridin-3-yl)-1,3-benzothiazol-2-yl] (2-methoxyethanesulfonyl)methyl}-1,3,4-oxadiazol-2-yl)acetamide] | 194 nM | 306 nM
5 | CS(=O)(=O)C(c1nnc(CNS(N)(=O)=O)o1)c1nc2ccc(-c3cccc(C(=O)N4CC(F)(F)C4)c3)cc2s1 (stereo not drawn) [Example 251, N-{[5-({6-[3-(3,3-difluoroazetidine-1-carbonyl)phenyl]-1,3-benzothiazol-2-yl} (methanesulfonyl)methyl)-1,3,4-oxadiazol-2-yl]methyl} aminosulfonamide] | 9 nM | 21 nM
6 | CS(=O)(=O)C(c1nnc(CNS(N)(=O)=O)o1)c1nc2ccc(-c3cccc(C(=O)N4CC(O)C4)c3)cc2s1 (stereo not drawn) [Example 252, N-{[5-({6-[3-(3-hydroxyazetidine-1-carbonyl)phenyl]-1,3-benzothiazol-2-yl} (methanesulfonyl)methyl)-1,3,4-oxadiazol-2-yl]methyl}aminosulfonamide] | 10 nM | 22 nM
7 | CS(=O)(=O)C(c1nnc(CNS(N)(=O)=O)o1)c1nc2ccc(-c3cccc(C(=O)Nc4nnc(C(F)(F)F)o4)c3)cc2s1 (stereo not drawn) [Example 253, 3-{2-[methanesulfonyl({5-[(sulfamoylamino)methyl]-1,3,4-oxadiazol-2-yl})methyl]-1,3-benzothiazol-6-yl}-N-[5-(trifluoromethyl)-1,3,4-oxadiazol-2-yl] benzamide] | 7 nM | 62 nM
8 | CS(=O)(=O)C(c1nnc(CNS(N)(=O)=O)o1)c1nc2ccc(-c3cccc(C(=O)N4CCC(F)(F)CC4)c3)cc2s1 (stereo not drawn) [Example 254, N-{[5-({6-[3-(4,4-difluoropiperidine-1-carbonyl)phenyl]-1,3-benzothiazol-2-yl} (methanesulfonyl)methyl)-1,3,4-oxadiazol-2-yl]methyl} aminosulfonamide] | 5 nM | 17 nM
9 | CS(=O)(=O)C(c1nnc(CNS(N)(=O)=O)o1)c1nc2ccc(-c3cccc(C(=O)NCCO)c3)cc2s1 (stereo not drawn) [Example 257, N-(2-hydroxyethyl)-3-{2-[methanesulfonyl({5-[(sulfamoylamino)methyl]-1,3,4-oxadiazol-2-yl})methyl]-1,3-benzothiazol-6-yl}benzamide] | 10 nM | 29 nM
10 | CS(=O)(=O)C(c1nnc(CNS(N)(=O)=O)o1)c1nc2ccc(-c3cccc(C(=O)NC4CCC(O)CC4)c3)cc2s1 (stereo not drawn) [Example 258, N-(4-hydroxycyclohexyl)-3-{2-[methanesulfonyl({5-[(sulfamoylamino)methyl]-1,3,4-oxadiazol-2-yl})methyl]-1,3-benzothiazol-6-yl}benzamide] | 8 nM | 35 nM
11 | CC(C)NC(=O)c1cccc(-c2ccc3nc(C(c4nnc(CNS(N)(=O)=O)o4)S(C)(=O)=O)sc3c2)c1 (stereo not drawn) [Example 259, 3-{2-[methanesulfonyl({5-[(sulfamoylamino)methyl]-1,3,4-oxadiazol-2-yl})methyl]-1,3-benzothiazol-6-yl}-N-(propan-2-yl) benzamide] | 8 nM | 37 nM

Further compounds by falling IC50 (Endothelial lipase (EL)), results first:

Row | IC50 (Endothelial lipase (EL)) | IC50 (hepatic lipase (HL)) | Compound
12 | 5 nM | 119 nM | CS(=O)(=O)C(c1nnc(CNS(N)(=O)=O)o1)c1nc2cc(-c3ccc(C(=O)N4CCOCC4)cc3)ccc2s1 (stereo not drawn) [Example 243, N-({5-[methanesulfonyl({5-[4-(morpholine-4-carbonyl)phenyl]-1,3-benzothiazol-2-yl})methyl]-1,3,4-oxadiazol-2-yl}methyl)aminosulfonamide]
13 | 4 nM | 43 nM | CS(=O)(=O)C(c1nnc(CNS(N)(=O)=O)o1)c1nc2cc(-c3cncnc3)ccc2s1 (stereo not drawn) [Example 247, N-[(5-{methanesulfonyl[5-(pyrimidin-5-yl)-1,3-benzothiazol-2-yl]methyl}-1,3,4-oxadiazol-2-yl)methyl]aminosulfonamide]
14 | 3 nM | 7 nM | CC(C)(C)CNC(=O)c1cccc(-c2ccc3nc(C(c4nnc(CNS(N)(=O)=O)o4)S(C)(=O)=O)sc3c2)c1 (stereo not drawn) [Example 260, N-(2,2-dimethylpropyl)-3-{2-[methanesulfonyl({5-[(sulfamoylamino)methyl]-1,3,4-oxadiazol-2-yl})methyl]-1,3-benzothiazol-6-yl}benzamide]
15 | 3 nM | 5 nM | CS(=O)(=O)C(c1nnc(CNS(N)(=O)=O)o1)c1nc2ccc(-c3cccc(C(=O)NC4CCC4)c3)cc2s1 (stereo not drawn) [Example 261, N-cyclobutyl-3-{2-[methanesulfonyl({5-[(sulfamoylamino)methyl]-1,3,4-oxadiazol-2-yl})methyl]-1,3-benzothiazol-6-yl}benzamide]
16 | 2 nM | 3 nM | COCc1ccc(-c2ccc3nc(C(c4nnc(CNS(N)(=O)=O)o4)S(=O)(=O)Cc4ccccc4F)sc3c2)cc1 (stereo not drawn) [Example 240, N-({5-[(2-fluorophenyl)methanesulfonyl ({6-[4-(methoxymethyl)phenyl]-1,3-benzothiazol-2-yl})methyl]-1,3,4-oxadiazol-2-yl}methyl) aminosulfonamide]
17 | 2 nM | 46 nM | CS(=O)(=O)C(c1nnc(CNS(N)(=O)=O)o1)c1nc2ccc(-c3cccc(C(=O)N4CCC(O)CC4)c3)cc2s1 (stereo not drawn) [Example 255, N-{[5-({6-[3-(4-hydroxypiperidine-1-carbonyl)phenyl]-1,3-benzothiazol-2-yl} (methanesulfonyl)methyl)-1,3,4-oxadiazol-2-yl]methyl} aminosulfonamide]
18 | 2 nM | 16 nM | CS(=O)(=O)C(c1nnc(CNS(N)(=O)=O)o1)c1nc2ccc(-c3cccc(C(=O)Nc4nncs4)c3)cc2s1 (stereo not drawn) [Example 256, 3-{2-[methanesulfonyl({5-[(sulfamoylamino)methyl]-1,3,4-oxadiazol-2-yl})methyl]-1,3-benzothiazol-6-yl}-N-(1,3,4-thiadiazol-2-yl)benzamide]
19 | 1 nM | 1 nM | COCc1ccc(-c2ccc3nc(C(c4nnc(CNS(N)(=O)=O)o4)S(=O)(=O)Cc4cccc(F)c4)sc3c2)cc1 (stereo not drawn) [Example 241, N-({5-[(3-fluorophenyl)methanesulfonyl({6-[4-(methoxymethyl)phenyl]-1,3-benzothiazol-2-yl})methyl]-1,3,4-oxadiazol-2-yl}methyl)aminosulfonamide]
20 | 1 nM | 1 nM | COCc1ccc(-c2ccc3nc(C(c4nnc(CNS(N)(=O)=O)o4)S(=O)(=O)Cc4ccc(F)cc4)sc3c2)cc1 (stereo not drawn) [Example 242, N-({5-[(4-fluorophenyl)methanesulfonyl ({6-[4-(methoxymethyl)phenyl]-1,3-benzothiazol-2-yl})methyl]-1,3,4-oxadiazol-2-yl}methyl) aminosulfonamide]
21 | 1 nM | 1 nM | CS(=O)(=O)C(c1nnc(CNS(N)(=O)=O)o1)c1nc2cc(-c3ccccc3)ccc2s1 (stereo not drawn) [Example 249, N-({5-[methanesulfonyl(5-phenyl-1,3-benzothiazol-2-yl)methyl]-1,3,4-oxadiazol-2-yl}methyl) aminosulfonamide]

From patent publication US20140011799A1 (Bristol-Myers Squibb Company, priority 2012, published 2014)
